Laboratory results reported in patent US6395896B2, “Pyridazine derivatives, manufacturing method and related composition” (Shiseido Co., Ltd., priority 1999, dated 2002).

Assays:
skin (antebrachium) = test: Skin irritation test: occlusive patch test; type: in vivo, human; conditions: 10 wt % ultraviolet absorbent, occlusive patch 24 hours
Experimental: Sample (10 wt % of ultraviolet absorbent) is the same as test example 2. An occlusive patch test was carried out in the antebrachium part of healthy men and women subjects by finchamber for 24 hours. Each group was twenty subjects. [table] Each of the calculated average scores was evaluated by the following evaluation standard. A: average score is 0. B: average score is over 0 and less than 1. C: average score is 1 or more and less than 2. D: average score is 2 or more.

[1] = Photostability test (aqueous solution exposed to sunlight); type: physicochemical; conditions: sunlight 80 MJ/m^2, two weeks
Experimental: After an aqueous solution of the pyridazine derivative of the present invention was exposed to sunlight (Amount of solar radiation exposure 80 MJ/m^2) for two weeks, residual yield and change of appearance were checked. UV absorption spectrum (Solvent: water, concentration: 10 ppm, Light path: 1 cm) was measured by spectrophotometer. Area value was calculated by integrating over the range of 290 nm to 400 nm of the ultraviolet rays absorption spectrum. The area value was compared with the value before sunlight exposure.
The residual yield and change of area value of ultraviolet rays absorption spectrum were evaluated by the following standard.
A: 95% or more of area value before sunlight exposure.
B: 90% or more and less than 95% of area value before sunlight exposure.
C: 70% or more and less than 90% of area value before sunlight exposure.
D: less than 70% of area value before sunlight exposure.

[2] = Drug stabilization effect (photostabilizer, sunlight exposure); design: key to Sunlight exposure (80 MJ) Appearance: A: No change; B: No almost change; C: Yes change; conditions: for Sunlight exposure (80 MJ) Appearance / Sunlight exposure (80 MJ) Residual yield [%]: photostabilizer 0.05, amounts wt %
Experimental: Next, the photo stabilization effect and changes in appearance in drug compositions were studied according to the following evaluation formulation.
Each test sample was prepared. Appearance changes of the samples exposed to sunlight (80 MJ) was observed (visual evaluation). Also, residual yield was measured by liquid chromatography.

[3] = Pigment stabilization effect (sequestering agent combination); design: key to Sunlight exposure (80 MJ) Appearance: A: No change; B: No almost change; C: Yes change; key to Sunlight exposure (80 MJ) ΔE: color difference ΔE in Lab space vs. color before sunlight exposure; conditions: amounts wt %
Experimental: First of all, the photostabilization effect and appearance changes of a composition for each pigment were studied by the following evaluation formulation.
Each test sample was prepared. Observation of appearance changes (visual evaluation) and measurement of color difference (ΔE) were carried out for samples exposed to sunlight (around 80 MJ).
Color difference was measured by Lab coordinate system with spectrophotometer. Color difference was calculated based on the color before sunlight exposure. Namely, from the measured value (L1,a1,b1) before sunlight exposure, color difference (ΔE) was calculated by following formula.

[4] = drug 2-o-α-α-glucopyranosyl-L-ascorbic acid 2.0
[5] = drug Dibutylhydroxytoluene 0.01
[6] = drug Dipotassium glycyrrhizinate 0.05
[7] = drug L-ascorbic acid 2-(dl-α-tocopheryl hydrogen phosphate) potassium salt 0.01
[8] = drug combined with photostabilizer, sunlight 80 MJ, summary of Table 23
[9] = colorant Blue No. 1 0.0001, photostabilizer 0.02 + Sodium metaphosphate 0.03
[10] = colorant Blue No. 1 0.0001, photostabilizer 0.02 + Trisodium ethylenediamine tetraacetate 0.03
[11] = colorant Blue No. 1 0.0001, photostabilizer 0.02 + Trisodium hydroxyethyl ethylenediamine triacetate 0.03
[12] = colorant Blue No. 1 0.0001, photostabilizer 0.02, no sequestering agent
[13] = colorant Green No. 3 0.0001, photostabilizer 0.02 + Sodium metaphosphate 0.03
[14] = colorant Green No. 3 0.0001, photostabilizer 0.02 + Sodium polyphosphate 0.03
[15] = colorant Green No. 3 0.0001, photostabilizer 0.02 + Trisodium ethylenediamine tetraacetate 0.03
[16] = colorant Green No. 3 0.0001, photostabilizer 0.02, no sequestering agent
[17] = colorant Red No. 106 0.0001, photostabilizer 0.02 + Sodium metaphosphate 0.02
[18] = colorant Red No. 106 0.0001, photostabilizer 0.02 + Sodium polyphosphate 0.02
[19] = colorant Red No. 106 0.0001, photostabilizer 0.02 + Trisodium ethylenediamine tetraacetate 0.02
[20] = colorant Red No. 106 0.0001, photostabilizer 0.02, no sequestering agent
[21] = colorant Red No. 213 0.0001, photostabilizer 0.03 + Sodium metaphosphate 0.05
[22] = colorant Red No. 213 0.0001, photostabilizer 0.03 + Trisodium ethylenediamine tetraacetate 0.05
[23] = colorant Red No. 213 0.0001, photostabilizer 0.03 + Trisodium hydroxyethyl ethylenediamine triacetate 0.05
[24] = colorant Red No. 213 0.0001, photostabilizer 0.03, no sequestering agent
[25] = colorant Red No. 227 0.0001, photostabilizer 0.01 + Sodium metaphosphate 0.02
[26] = colorant Red No. 227 0.0001, photostabilizer 0.01 + Trisodium ethylenediamine tetraacetate 0.02
[27] = colorant Red No. 227 0.0001, photostabilizer 0.01 + Trisodium hydroxyethyl ethylenediamine triacetate 0.02
[28] = colorant Red No. 227 0.0001, photostabilizer 0.01, no sequestering agent

## Oc1nncc(N2CCOCC2)c1N1CCOCC1 [4,5-Dimorpholino-3-hydroxypyridazine]
Skin (antebrachium); Cream
  Judgment (patch test, average skin reaction score): A (average score is 0.)
Skin (antebrachium); Lotion
  Judgment (patch test, average skin reaction score): A (average score is 0.)
[1]
  Residual yield: A (95% or more of area value before sunlight exposure.)
[1]; 290 nm to 400 nm
  Change of area value of UV absorption spectrum: A (95% or more of area value before sunlight exposure.)
[2]; [4]
  Sunlight exposure (80 MJ) Appearance: A
  Sunlight exposure (80 MJ) Residual yield [%]: 99.3%
[2]; [5]
  Sunlight exposure (80 MJ) Appearance: A
  Sunlight exposure (80 MJ) Residual yield [%]: 98.8%
[2]; [6]
  Sunlight exposure (80 MJ) Appearance: A
  Sunlight exposure (80 MJ) Residual yield [%]: 100.3%
[2]; [7]
  Sunlight exposure (80 MJ) Appearance: A
  Sunlight exposure (80 MJ) Residual yield [%]: 99.4%
[2]; drug Salicylic acid 0.1
  Sunlight exposure (80 MJ) Appearance: A
  Sunlight exposure (80 MJ) Residual yield [%]: 100.3%
[2]; [8]
  appearance changes of the composition: small
  residual yield of a drug: very high in comparison with other photostabilizers
[3]; [9]
  Sunlight exposure (80 MJ) Appearance: A
  Sunlight exposure (80 MJ) ΔE: 1.00
[3]; [10]
  Sunlight exposure (80 MJ) Appearance: A
  Sunlight exposure (80 MJ) ΔE: 1.18
[3]; [11]
  Sunlight exposure (80 MJ) Appearance: A
  Sunlight exposure (80 MJ) ΔE: 1.08
[3]; [12]
  Sunlight exposure (80 MJ) Appearance: B
  Sunlight exposure (80 MJ) ΔE: 1.74
[3]; [13]
  Sunlight exposure (80 MJ) Appearance: A
  Sunlight exposure (80 MJ) ΔE: 0.28
[3]; [14]
  Sunlight exposure (80 MJ) Appearance: A
  Sunlight exposure (80 MJ) ΔE: 0.52
[3]; [15]
  Sunlight exposure (80 MJ) Appearance: A
  Sunlight exposure (80 MJ) ΔE: 0.48
[3]; [16]
  Sunlight exposure (80 MJ) Appearance: B
  Sunlight exposure (80 MJ) ΔE: 0.75
[3]; [17]
  Sunlight exposure (80 MJ) Appearance: A
  Sunlight exposure (80 MJ) ΔE: 0.77
[3]; [18]
  Sunlight exposure (80 MJ) Appearance: A
  Sunlight exposure (80 MJ) ΔE: 0.85
[3]; [19]
  Sunlight exposure (80 MJ) Appearance: A
  Sunlight exposure (80 MJ) ΔE: 0.84
[3]; [20]
  Sunlight exposure (80 MJ) Appearance: B
  Sunlight exposure (80 MJ) ΔE: 1.23
[3]; [21]
  Sunlight exposure (80 MJ) Appearance: A
  Sunlight exposure (80 MJ) ΔE: 1.38
[3]; [22]
  Sunlight exposure (80 MJ) Appearance: A
  Sunlight exposure (80 MJ) ΔE: 1.45
[3]; [23]
  Sunlight exposure (80 MJ) Appearance: A
  Sunlight exposure (80 MJ) ΔE: 1.41
[3]; [24]
  Sunlight exposure (80 MJ) Appearance: B
  Sunlight exposure (80 MJ) ΔE: 2.12
[3]; [25]
  Sunlight exposure (80 MJ) Appearance: B
  Sunlight exposure (80 MJ) ΔE: 0.84
[3]; [26]
  Sunlight exposure (80 MJ) Appearance: A
  Sunlight exposure (80 MJ) ΔE: 0.62
[3]; [27]
  Sunlight exposure (80 MJ) Appearance: A
  Sunlight exposure (80 MJ) ΔE: 0.58
[3]; [28]
  Sunlight exposure (80 MJ) Appearance: B
  Sunlight exposure (80 MJ) ΔE: 0.98
[3]; colorant Red No. 401 0.001, photostabilizer 0.02 + Sodium metaphosphate 0.1
  Sunlight exposure (80 MJ) Appearance: A
